# Source: patent US20230069722A1, “TUBULYSINS AND PROTEIN-TUBULYSIN CONJUGATES” (priority 2020, published 2023)
# Read-outs that look alike come from different tables or passages of the source.
# Tested on: HCT15 cells
# Test: MDR cell based killing assay, HCT15 cells with or without Verapamil (CellTiter-Glo)
# Set-up: species or system human
# Settings: for IC50: Homo sapiens
# Protocol: To test the ability of the disclosed tubulysin payloads or prodrug payloads to kill human cell lines, an in vitro cytotoxicity assay can be performed. In vitro cytotoxicity of the disclosed payloads, as well as reference compounds, are evaluated using the CellTiter-Glo Assay Kit (Promega, Cat # G7573), in which the quantity of ATP present is used to determine the number of viable cells in culture. For the assay, C4-2, HEK293, or T47D cells are seeded at 4000 cells/well on Nunclon white 96-well plates in complete growth medium (DME high glucose:Ham's F12 at 4:1, 10% FBS, 100 units/ml Penicillin, 100 ug/ml streptomycin, 53 ug/ml glutatmine, 10 ug/ml insulin, 220 ng/ml biotin, 12.5 pg/ml T3, 12.5 ug/ml Adenine, 4 ug/ml transferrin for C42 cells; DME high glucose, 10% FBS, 100 units/ml Penicillin, 100 ug/ml streptomycin, 53 ug/ml glutatmine for HEK293; RPMI, 10% FBS, 100 units/ml Penicillin, 100 ug/ml streptomycin, 53 ug/ml glutatmine, 10 ug/ml insulin, 10 mM HEPEs, 200 nM Sodium Pyruvate for T47D cells) and grown overnight at 37° C. in 5% CO2. For cell viability curves, 1:3 serially diluted payloads are added to the cells at final concentrations ranging from 100 nM to 15 pM, including a no treatment control group, and are then incubated for 5 days. After the 5-day incubation, cells are incubated at room temperature with 100 μL of CellTiter-Glo reagents for 10 minutes. Relative luminescence units (RLU) can be determined on a Victor plate reader (PerkinElmer). The IC50 values are determined from a four-parameter logistic equation over a 10-point response curve (GraphPad Prism). All IC50 values are expressed in molar (M) concentration. The percent cell killing (% kill) at the maximum concentration tested is estimated from the following formula (100−% viable cells). Averages±standard deviation (SD) can be included where replicate experiments are performed.
# In vitro cytotoxicity of the disclosed payloads as well as reference compounds are evaluated similarly as described above except using 1000 HCT15 cells, a colorectal carcinoma cell line, in growth medium (RPMI, 10% FBS, 100 units/ml Penicillin, 100 ug/ml streptomycin, 53 ug/ml glutatmine) with or without 5 ug/mL of Verapamil.
# For each payload or prodrug payload, the HCT-15 IC50 in the absence of Verapamil is divided by the HCT-15 IC50 in the presence of Verapamil (HCT-15 IC50/HCT-15+Verapamil IC50). […] The reference compound, (MMAE), can have a ratio of 23.7. […]
# [1] = HCT-15, read-out: HCT-15 with verapamil IC50
Structure (SMILES),"IC50 (HCT-15, read-out: HCT-15 IC50) [nM]",IC50 [1] [nM],"HCT-15 with verapamil Ratio to Xa = H (IC50 ratio to parent payload with Xa = H, with verapamil) [x]","HCT-15 Ratio to Xa = H (IC50 ratio to parent payload with Xa = H, without verapamil) [x]"
"CCCCCCN(C(=O)[C@@H](NC(=O)[C@H]1C[C@H](C)CCN1C)[C@@H](C)CC)[C@H](C[C@@H](OC(C)=O)c1nc(C(=O)N[C@@H](Cc2ccc(N)c(F)c2)CC(C)(C)C(=O)O)cs1)C(C)C [Compound P13, (4S)-4-({2-[(1R,3R)-1-(acetyloxy)-3-[(2S,3S)-2-{[(2R,4R)-1,4-dimethylpiperidin-2-yl]formamido}-N-hexyl-3-methylpentanamido]-4-methylpentyl]-1,3-thiazol-4-yl}formamido)-5-(4-amino-3-fluorophenyl)-2,2-dimethylpentanoic Acid]",0.15,0.13,,
"C#CCCCON(C(=O)[C@@H](NC(=O)[C@H]1CCCCN1C)[C@@H](C)CC)[C@H](C[C@@H](OC(C)=O)c1nc(C(=O)NS(=O)(=O)Cc2ccc(N)cc2)cs1)C(C)C [Compound P49, (1R,3R)-1-(4-{[(4-aminophenyl)methanesulfonyl]carbamoyl}-1,3-thiazol-2-yl)-4-methyl-3-[(2S,3S)-3-methyl-2-{[(2R)-1-methylpiperidin-2-yl]formamido}-N-(pent-4-yn-1-yloxy)pentanamido]pentyl Acetate]",163,,,
"CCCCCCN(C(=O)[C@@H](NC(=O)[C@H]1CCCCN1C)[C@@H](C)CC)[C@H](C[C@@H](OCC)c1nc(C(=O)N[C@@H](Cc2ccc(N)c(F)c2)CC(C)(C)C(=O)O)cs1)C(C)C [Compound P3, (4S)-5-(4-amino-3-fluorophenyl)-4-({2-[(1R,3R)-1-ethoxy-3-[(2S,3S)—N-hexyl-3-methyl-2-{[(2R)-1-methylpiperidin-2-yl]formamido}pentanamido]-4-methylpentyl]-1,3-thiazol-4-yl}formamido)-2,2-dimethylpentanoic Acid]",0.07,0.01,,
"CCCCCCN(C(=O)[C@@H](NC(=O)[C@H]1C[C@H](C)CCN1)[C@@H](C)CC)[C@H](C[C@@H](OCC)c1nc(C(=O)N[C@@H](Cc2ccc(N)cc2)CC(C)(C)C(=O)O)cs1)C(C)C [Compound P21, (4S)-5-(4-aminophenyl)-4-({2-[(1R,3R)-1-ethoxy-3-[(2S,3S)—N-hexyl-3-methyl-2-{[(2R,4R)-4-methylpiperidin-2-yl]formamido}pentanamido]-4-methylpentyl]-1,3-thiazol-4-yl}formamido)-2,2-dimethylpentanoic Acid]",11.1,1.47,,
"CCCCCCN(C(=O)[C@@H](NC(=O)[C@H]1CCCCN1C)[C@@H](C)CC)[C@H](C[C@@H](OC(C)=O)c1nc(C(=O)N[C@@H](Cc2ccc(N)cc2)CC(C)(C)C(=O)O)cs1)C(C)C [Compound P7, (4S)-4-({2-[(1R,3R)-1-(acetyloxy)-3-[(2S,3S)—N-hexyl-3-methyl-2-{[(2R)-1-methylpiperidin-2-yl]formamido}pentanamido]-4-methylpentyl]-1,3-thiazol-4-yl}formamido)-5-(4-aminophenyl)-2,2-dimethylpentanoic Acid]",0.02,0.02,,
"C#CCCCON(C(=O)[C@@H](NC(=O)[C@H]1CCCCN1C)[C@@H](C)CC)[C@H](C[C@@H](OC(C)=O)c1nc(C(=O)N[C@@H](Cc2ccc(NC(=O)CNC(=O)CN)cc2)CC(C)(C)C(=O)O)cs1)C(C)C [Compound P39, (4S)-4-({2-[(1R,3R)-1-(acetyloxy)-4-methyl-3-[(2S,3S)-3-methyl-2-{[(2R)-1-methylpiperidin-2-yl]formamido}-N-(pent-4-yn-1-yloxy)pentanamido]pentyl]-1,3-thiazol-4-yl}formamido)-5-{4-[2-(2-aminoacetamido)acetamido]phenyl}-2,2-dimethylpentanoic Acid]",0.62,,,
"C#CCCCON(C(=O)[C@@H](NC(=O)[C@H]1CCCCN1C)[C@@H](C)CC)[C@H](C[C@@H](OC(C)=O)c1nc(C(=O)N[C@@H](Cc2ccc(O)cc2)CC(C)(C)C(=O)O)cs1)C(C)C [Compound P51, (4S)-4-({2-[(1R,3R)-1-(acetyloxy)-4-methyl-3-[(2S,3S)-3-methyl-2-{[(2R)-1-methylpiperidin-2-yl]formamido}-N-(pent-4-yn-1-yloxy)pentanamido]pentyl]-1,3-thiazol-4-yl}formamido)-5-(4-hydroxyphenyl)-2,2-dimethylpentanoic Acid]",0.41,0.16,,
"CCCCCCN(C(=O)[C@@H](NC(=O)[C@H]1CCCCN1C)[C@@H](C)CC)[C@H](C[C@@H](NC(C)=O)c1nc(C(=O)N[C@@H](Cc2ccc(N)cc2)CC(C)(C)C(=O)O)cs1)C(C)C [Compound P9, (4S)-5-(4-aminophenyl)-4-({2-[(1R,3R)-1-acetamido-3-[(2S,3S)—N-hexyl-3-methyl-2-{[(2R)-1-methylpiperidin-2-yl]formamido}pentanamido]-4-methylpentyl]-1,3-thiazol-4-yl}formamido)-2,2-dimethylpentanoic Acid]",2.07,0.3,,
"CCCCCCN(C(=O)[C@@H](NC(=O)[C@H]1C[C@H](C)CCN1)[C@@H](C)CC)[C@H](C[C@@H](OC(C)=O)c1nc(C(=O)N[C@@H](Cc2ccc(N)c(F)c2)CC(C)(C)C(=O)O)cs1)C(C)C [Compound P14, (4S)-4-({2-[(1R,3R)-1-(acetyloxy)-3-[(2S,3S)—N-hexyl-3-methyl-2-{[(2R,4R)-4-methylpiperidin-2-yl]formamido}pentanamido]-4-methylpentyl]-1,3-thiazol-4-yl}formamido)-5-(4-amino-3-fluorophenyl)-2,2-dimethylpentanoic Acid]",1.21,0.1,,
"CCCCCCN(C(=O)[C@@H](NC(=O)[C@H]1CCCCN1C)[C@@H](C)CC)[C@H](C[C@@H](OC(C)=O)c1nc(C(=O)NS(=O)(=O)Cc2ccc(N)cc2)cs1)C(C)C [Compound P44, (1R,3R)-1-(4-{[(4-aminophenyl)methanesulfonyl]carbamoyl}-1,3-thiazol-2-yl)-3-[(2S,3S)—N-hexyl-3-methyl-2-{[(2R)-1-methylpiperidin-2-yl]formamido}pentanamido]-4-methylpentyl Acetate]",25.8,,,
"CCCCCCN(C(=O)[C@@H](NC(=O)[C@H]1CCCCN1C)[C@@H](C)CC)[C@H](C[C@@H](OC(C)=O)c1nc(C(=O)N[C@@H](Cc2ccc(NC(=O)CO)cc2)CC(C)(C)C(=O)O)cs1)C(C)C [Compound P29, (4S)-4-({2-[(1R,3R)-1-(acetyloxy)-3-[(2S,3S)—N-hexyl-3-methyl-2-{[(2R)-1-methylpiperidin-2-yl]formamido}pentanamido]-4-methylpentyl]-1,3-thiazol-4-yl}formamido)-5-[4-(2-hydroxyacetamido)phenyl]-2,2-dimethylpentanoic Acid]",4.68,0.67,35,104
"CCCCCCN(C(=O)[C@@H](NC(=O)[C@H]1CCCCN1C)[C@@H](C)CC)[C@H](C[C@@H](OCC)c1nc(C(=O)N[C@@H](Cc2ccccc2)CC(C)(C)C(=O)NS(=O)(=O)Cc2ccc(N)cc2)cs1)C(C)C [Compound P48, (2S,3S)—N-[(1R,3R)-1-(4-{[(2S)-4-{[(4-aminophenyl)methanesulfonyl]carbamoyl}-4,4-dimethyl-1-phenylbutan-2-yl]carbamoyl}-1,3-thiazol-2-yl)-1-ethoxy-4-methylpentan-3-yl]-N-hexyl-3-methyl-2-{[(2R)-1-methylpiperidin-2-yl]formamido}pentanamide]",65.8,,,
